In patent US9023789B2, “Amylin analogs and pharmaceutical compositions thereof” (Novo Nordisk A/S, priority 2012, dated 2015):
Numbered stars: 1 amine (or outer) side, 2 acyl side, 3 side chain; on linkers, the order of the positions; unused ones are H or OH. Bridge positions count the residues as written; N and C are the ends. Side chains are listed from the residue outwards. Peptide text beside a SMILES is read from it. * marks the point of attachment. C20 diacid = O=C(O)CCCCCCCCCCCCCCCCCCC(=O)*; γGlu = O=C(O)[C@H](CCC(=O)[*:2])N[*:1]; AEEA = NCCOCCOCC(=O)O

Assays:
[1] = molecular target: T1, human amylin 3(a) receptor (human calcitonin receptor + RAMP-3) in BHK570 cells (Homo sapiens, UniProt O60896+P30988); test: ASSAY (II)a functional assay, human amylin receptor (CRE luciferase); format: cell-based; details: for EC50: human amylin receptor functional potency, assay (II), read-out: hAmylin-R funct. EC50
T1 construct: expressed in transfected cells
How it was run: (§1)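 Receptor activation is measured as cAMP-driven CRE-luciferase expression in BHK cells expressing the calcitonin receptor, with RAMP-3 co-expressed to form the amylin 3(a) receptor. Cells are exposed to compound for 3 hours at 37° C, and luciferase is then quantified by luminescence.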

[2] = molecular target: T2, human calcitonin (a) receptor in BHK570 cells (Homo sapiens, UniProt P30988); test: ASSAY (II)a functional assay, human calcitonin receptor (CRE luciferase); format: cell-based; details: read-out: hCTR funct. EC50
T2 construct: expressed in transfected cells
T2 sequence (P30988 25-474): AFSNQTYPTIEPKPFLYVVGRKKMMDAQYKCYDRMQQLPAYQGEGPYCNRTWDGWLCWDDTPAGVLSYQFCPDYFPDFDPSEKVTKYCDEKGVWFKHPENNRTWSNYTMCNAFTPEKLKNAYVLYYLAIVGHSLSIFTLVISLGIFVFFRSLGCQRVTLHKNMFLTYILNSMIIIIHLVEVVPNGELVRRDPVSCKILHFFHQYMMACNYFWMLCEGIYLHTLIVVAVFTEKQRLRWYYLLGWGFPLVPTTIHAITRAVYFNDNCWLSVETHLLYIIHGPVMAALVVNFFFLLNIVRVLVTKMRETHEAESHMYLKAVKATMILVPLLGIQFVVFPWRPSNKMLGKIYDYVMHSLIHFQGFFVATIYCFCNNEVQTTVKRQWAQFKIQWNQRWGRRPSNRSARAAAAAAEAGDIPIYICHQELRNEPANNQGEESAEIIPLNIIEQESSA
How it was run: as §1

[3] = molecular target: T3, human amylin receptor (membranes from Amylin 3(a)/CRE-luc cells) (Homo sapiens, UniProt O60896+P30988); test: ASSAY (V) binding to the human amylin receptor (SPA, 125I-rat amylin); details: for IC50: Table 4, read-out: hAmylin-R bind IC50;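 on all read-outs here: competition binding of cell membranes (35 ng/µL) mixed with SPA beads in 384-well plates at 40 µL total volume, read by scintillation counting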
T3 construct: expressed in transfected cells
T3 sequence (P30988 25-474): T2 sequence (P30988 25-474)
T3 sequence (O60896 24-148 partner): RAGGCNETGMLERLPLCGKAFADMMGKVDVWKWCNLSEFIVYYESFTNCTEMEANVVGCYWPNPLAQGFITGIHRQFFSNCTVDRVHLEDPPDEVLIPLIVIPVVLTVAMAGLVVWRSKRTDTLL

[4] = molecular target: T4, rat amylin receptor (rat calcitonin receptor + rat RAMP 3) (Rattus norvegicus, UniProt P32214+Q9JJ73); test: ASSAY (VI) binding to the rat amylin receptor; details: for IC50: binding to rat amylin receptor, read-out: rAmylin-R bind IC50
T4 construct: expressed in transfected cells; host or cells: BHK tk'ts 13 (transient, FuGENE 6), membranes
T4 sequence (P32214 25-479 isoform P32214-2 limits assumed): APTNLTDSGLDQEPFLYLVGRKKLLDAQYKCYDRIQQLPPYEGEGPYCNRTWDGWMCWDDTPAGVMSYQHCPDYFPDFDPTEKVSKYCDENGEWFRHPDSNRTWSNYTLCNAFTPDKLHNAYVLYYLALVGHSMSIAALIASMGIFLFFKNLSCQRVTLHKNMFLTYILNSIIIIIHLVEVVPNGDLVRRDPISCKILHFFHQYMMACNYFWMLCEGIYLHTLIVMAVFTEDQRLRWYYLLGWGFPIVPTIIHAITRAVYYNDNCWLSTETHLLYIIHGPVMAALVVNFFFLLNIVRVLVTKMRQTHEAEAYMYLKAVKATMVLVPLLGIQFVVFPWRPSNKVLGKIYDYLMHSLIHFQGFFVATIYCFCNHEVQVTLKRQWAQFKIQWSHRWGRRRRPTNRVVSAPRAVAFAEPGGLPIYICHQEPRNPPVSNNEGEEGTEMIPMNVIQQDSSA
T4 sequence (Q9JJ73 23-147 partner): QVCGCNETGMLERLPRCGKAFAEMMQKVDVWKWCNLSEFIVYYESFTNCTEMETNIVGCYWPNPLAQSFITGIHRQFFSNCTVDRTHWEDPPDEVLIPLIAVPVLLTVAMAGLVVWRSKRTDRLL
How it was run: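 Membranes for this rat amylin receptor binding assay came from BHK tk′ts 13 cells. The cells were transiently transfected with rat calcitonin receptor using the FuGENE® 6 reagent from Roche, as the manufacturer recommends. The cells were collected approximately 48 hours after transfection, and membranes were then prepared.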

[5] = molecular target: T5, human calcitonin receptor (Homo sapiens, UniProt P30988); test: ASSAY (VII) binding to the human calcitonin receptor (SPA, 125I-Calcitonin); details: read-out: hCTR bind IC50;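 further: cell membranes (35 ng/µL) combined with SPA beads in 40 µL of pH 7.4 Hepes buffer, 384-well format, signal counted on a TopCounter instrument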
T5 construct: expressed in transfected cells
T5 sequence (P30988 25-474): T2 sequence (P30988 25-474)

[6] = molecular target: T6, rat calcitonin receptor (Rattus norvegicus, UniProt P32214); test: ASSAY (VIII) binding to the rat calcitonin receptor; details: Table 7, read-out: rCTR bind IC50
T6 construct: expressed in transfected cells; host or cells: BHK tk'ts 13 (transient, FuGENE 6), membranes
T6 sequence (P32214 25-479 isoform P32214-2 limits assumed): T4 sequence (P32214 25-479 isoform P32214-2 limits assumed)
How it was run: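 Cell membranes for binding came from BHK tk′ts 13 cells harvested approximately 48 hours after transient transfection with the rat receptor.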

[7] = hCTR funct. EC50 divided by hAmylin-R funct. EC50
[8] = hCTR funct. EC50 over hAmylin-R funct. EC50
[9] = human functional selectivity: hCTR funct. EC50 / hAmylin-R funct. EC50
[10] = Table 5, selectivity, hCTR bind IC50 / hAmylin-R bind IC50
[11] = Table 5a, selectivity, hCTR bind IC50 / hAmylin-R bind IC50
[12] = Table 5b, selectivity, hCTR bind IC50 / hAmylin-R bind IC50
[13] = Table 5c, selectivity, hCTR bind IC50 / hAmylin-R bind IC50
[14] = Table 7, human binding selectivity, included for comparison
[15] = Table 7a (preferred compounds), human binding selectivity, included for comparison
[16] = ratio of human calcitonin receptor binding IC50 to human amylin receptor binding IC50
[17] = Table 7, rat binding selectivity, rCTR IC50 / rAmylin-R IC50
[18] = Table 7a (preferred compounds), rat binding selectivity, rCTR IC50 / rAmylin-R IC50
[19] = ratio of rCTR bind IC50 to rAmylin-R bind IC50

SMILES	Ratio hCT/hAmylin funct. [1, 7]	Ratio hCT/hAmylin funct. [1, 8]	EC50 [1] [nM]	Ratio hCT/hAmylin funct. [1, 9]	EC50 [2] [nM]	IC50 [3] [nM]	Ratio hCT/hAmylin binding [3, 10]	Ratio hCT/hAmylin binding [3, 11]	Ratio hCT/hAmylin binding [3, 12]	Ratio hCT/hAmylin binding [3, 13]	Ratio hCT/hAmylin binding [3, 14]	Ratio hCT/hAmylin binding [3, 15]	Ratio hCT/hAmylin binding [3, 16]	IC50 ([4]; Table 7) [nM]	Ratio rCT/rAmylin binding [4, 17]	Ratio rCT/rAmylin binding [4, 18]	Ratio rCT/rAmylin binding [4, 19]	IC50 [5] [nM]	IC50 [6] [nM]
CC[C@H](C)[C@H](NC(=O)[C@H](C)NC(=O)CNC(=O)[C@H](Cc1ccccc1)NC(=O)[C@H](CC(N)=O)NC(=O)[C@@H]1CCCN1C(=O)[C@H](CO)NC(=O)[C@H](CO)NC(=O)[C@H](Cc1c[nH]cn1)NC(=O)[C@H](CCCNC(=N)N)NC(=O)[C@H](CC(C)C)NC(=O)[C@H](Cc1ccccc1)NC(=O)[C@H](Cc1c[nH]cn1)NC(=O)[C@H](C)NC(=O)[C@H](CC(C)C)NC(=O)[C@H](CCCNC(=N)N)NC(=O)[C@H](CCC(N)=O)NC(=O)[C@@H](NC(=O)[C@H](C)NC(=O)[C@@H]1CSSC[C@H](NC(=O)[C@@H](N)CCCCNC(=O)COCCOCCNC(=O)CC[C@H](NC(=O)CCCCCCCCCCCCCCCCCCC(=O)O)C(=O)O)C(=O)N[C@@H](CC(N)=O)C(=O)N[C@@H]([C@@H](C)O)C(=O)N[C@@H](C)C(=O)N[C@@H]([C@@H](C)O)C(=O)N1)[C@@H](C)O)C(=O)N1CCC[C@H]1C(=O)N[C@@H](CO)C(=O)N[C@@H](CO)C(=O)N[C@H](C(=O)N[C@@H](CC(N)=O)C(=O)N[C@H](C(=O)NCC(=O)N[C@@H](Cc1c[nH]cn1)C(=O)N[C@@H](CC(N)=O)C(=O)N[C@H](C(=O)N[C@@H](Cc1ccc(O)cc1)C(N)=O)[C@@H](C)O)C(C)C)[C@@H](C)O [Example 80] (H-K([AEEA-γGlu-C20 diacid])CNTATCATQRLAHFLRHSSPNFGAIPSSTNVGHNTY-NH2; disulfide 2-7; N-terminus assumed)	15.4	15.4	0.139	15.4	2.14	0.29	68.1	68.1	68.1	68.1	68.1	68.1	68.1	1.67	36.2	36.2	36.2	19.8	60.4
CC[C@H](C)[C@H](NC(=O)[C@H](C)NC(=O)CNC(=O)[C@H](Cc1ccccc1)NC(=O)[C@H](CC(N)=O)NC(=O)[C@@H]1CCCN1C(=O)[C@H](CO)NC(=O)[C@H](CO)NC(=O)[C@H](Cc1c[nH]cn1)NC(=O)[C@H](CCCNC(=N)N)NC(=O)[C@H](CC(C)C)NC(=O)[C@H](Cc1ccccc1)NC(=O)[C@H](Cc1c[nH]cn1)NC(=O)[C@H](C)NC(=O)[C@H](CC(C)C)NC(=O)[C@H](CCCNC(=N)N)NC(=O)[C@H](CCC(N)=O)NC(=O)[C@@H](NC(=O)[C@H](C)NC(=O)[C@@H]1CSSC[C@H](NC(=O)[C@@H](N)CCCCNC(=O)CC[C@H](NC(=O)CCCCCCCCCCCCCCCCCCC(=O)O)C(=O)O)C(=O)N[C@@H](CC(N)=O)C(=O)N[C@@H]([C@@H](C)O)C(=O)N[C@@H](C)C(=O)N[C@@H]([C@@H](C)O)C(=O)N1)[C@@H](C)O)C(=O)N1CCC[C@H]1C(=O)N[C@@H](CO)C(=O)N[C@@H](CO)C(=O)N[C@H](C(=O)N[C@@H](CC(N)=O)C(=O)N[C@H](C(=O)NCC(=O)N[C@@H](Cc1c[nH]cn1)C(=O)N[C@@H](CC(N)=O)C(=O)N[C@H](C(=O)N[C@@H](Cc1ccc(O)cc1)C(N)=O)[C@@H](C)O)C(C)C)[C@@H](C)O [Example 81] (H-K([γGlu-C20 diacid])CNTATCATQRLAHFLRHSSPNFGAIPSSTNVGHNTY-NH2; disulfide 2-7; N-terminus assumed)	13.3	13.3	0.13	13.3	1.73	0.271	87.2	87.2	87.2	87.2	87.2	87.2	87.2	1.42	42.9	42.9	42.9	23.6	61.1
CC[C@H](C)[C@H](NC(=O)[C@H](C)NC(=O)CNC(=O)[C@H](Cc1ccccc1)NC(=O)[C@H](CC(N)=O)NC(=O)[C@@H]1CCCN1C(=O)[C@H](CO)NC(=O)[C@H](CO)NC(=O)[C@H](Cc1c[nH]cn1)NC(=O)[C@H](CCCNC(=N)N)NC(=O)[C@H](CC(C)C)NC(=O)[C@H](Cc1ccccc1)NC(=O)[C@H](Cc1c[nH]cn1)NC(=O)[C@H](C)NC(=O)[C@H](CC(C)C)NC(=O)[C@H](CCCNC(=N)N)NC(=O)[C@H](CCC(N)=O)NC(=O)[C@@H](NC(=O)[C@H](C)NC(=O)[C@@H]1CSSC[C@H](NC(=O)[C@@H](N)CCCCNC(=O)COCCOCCNC(=O)CC[C@H](NC(=O)CCCCCCCCCCCCCCCCCCC(=O)O)C(=O)O)C(=O)N[C@@H](CC(N)=O)C(=O)N[C@@H]([C@@H](C)O)C(=O)N[C@@H](C)C(=O)N[C@@H]([C@@H](C)O)C(=O)N1)[C@@H](C)O)C(=O)N1CCC[C@H]1C(=O)N[C@@H](CO)C(=O)N[C@@H](CO)C(=O)N[C@H](C(=O)N[C@@H](CC(N)=O)C(=O)N[C@H](C(=O)NCC(=O)N[C@@H](CCCNC(=N)N)C(=O)N[C@@H](CC(N)=O)C(=O)N[C@H](C(=O)N[C@@H](Cc1ccc(O)cc1)C(N)=O)[C@@H](C)O)C(C)C)[C@@H](C)O [Example 84] (H-K([AEEA-γGlu-C20 diacid])CNTATCATQRLAHFLRHSSPNFGAIPSSTNVGRNTY-NH2; disulfide 2-7 (inferred); N-terminus assumed)	32.5	32.5	0.169	32.5	5.49	0.743	119.6	119.6	119.6	119.6	119.6	119.6	119.6	5.05	94.3	94.3	94.3	88.9	477
